We go through 25 compounds from patent US11236055B2 (Venenum Biodesign, LLC, priority 2016, dated 2022).

Counter-ions that a name gives are not always drawn.

One experiment concerns the target T1, human TGR5 receptor (Homo sapiens, UniProt Q8TDU6).
T1 construct: host or cells: CHO-K1 (hTGR5-CHO cells)
T1 sequence (Q8TDU6 1-330): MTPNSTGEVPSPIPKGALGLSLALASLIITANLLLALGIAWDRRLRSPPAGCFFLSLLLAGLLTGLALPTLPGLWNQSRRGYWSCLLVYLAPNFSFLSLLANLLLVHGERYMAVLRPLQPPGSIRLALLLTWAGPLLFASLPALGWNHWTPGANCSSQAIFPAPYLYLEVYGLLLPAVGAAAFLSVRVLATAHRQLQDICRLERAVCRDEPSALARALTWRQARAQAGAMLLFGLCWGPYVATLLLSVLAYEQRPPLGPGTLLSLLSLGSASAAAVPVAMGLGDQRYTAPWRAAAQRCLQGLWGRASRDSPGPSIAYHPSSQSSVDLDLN
Put plainly: Human TGR5 cAMP production assay. Type of experiment: cell-based. Conditions: human TGR5, luminescent cAMP assay; coded A-D; read-out: Human TGR5 Lum. cAMP Activity (EC50). An outline of the steps: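 Intracellular cAMP read by luminescent enzyme-complementation (XS+) after overnight development, following 1 h room-temperature compound treatment of hTGR5-CHO-K1 cells in IBMX plus anti-cAMP antibody. Compounds tested as half-log dilution series; EC50 derived.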

The next experiment deals with T2, mouse TGR5 receptor (Mus musculus, UniProt Q80SS6).
T2 construct: expressed in transfected cells; host or cells: HEK293-EBNA (293 c18, ATCC CRL10852), Hygromycin B selection
T2 sequence (Q80SS6 1-329): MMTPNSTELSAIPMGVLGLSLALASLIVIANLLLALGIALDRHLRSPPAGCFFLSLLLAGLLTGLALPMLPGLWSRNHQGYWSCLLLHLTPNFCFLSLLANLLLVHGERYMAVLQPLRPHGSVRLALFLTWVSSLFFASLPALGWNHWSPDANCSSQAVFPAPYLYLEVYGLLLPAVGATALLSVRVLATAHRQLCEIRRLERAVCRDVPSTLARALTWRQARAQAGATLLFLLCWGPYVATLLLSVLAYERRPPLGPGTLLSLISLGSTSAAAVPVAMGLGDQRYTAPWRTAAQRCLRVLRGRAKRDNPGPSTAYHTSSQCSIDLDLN
Put plainly: Mouse TGR5 cAMP production assay (HTRF, Cisbio cAMP HiRange). Type of experiment: cell-based. Conditions: HEK293-EBNA cells overexpressing mouse TGR5, HTRF cAMP HiRange; coded A-D. An outline of the steps:
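cAMP read by HTRF competition after 1 h room-temperature compound exposure of mouse TGR5-overexpressing HEK293-EBNA cells. Cells were suspended in serum-free DMEM containing 500 μM IBMX; compounds ran as 12-point half-log dilutions in duplicate; EC50 derived.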

By EC50 is commonly meant the midpoint of the concentration-response curve. With `COc1cccc(S(=O)(=O)N2CCN(C(=O)CS(=O)(=O)O)CC2c2cccc(-c3ccncc3C)c2)c1` (centres unmarked) [Compound 49AB, 2-(4-((3-methoxyphenyl)sulfonyl)-3-(3-(3-methylpyridin-4-yl)phenyl)piperazin-1-yl)-2-oxoethanesulfonic acid], the EC50 on human TGR5 receptor is 0.1 to 0.999 µM; at mouse TGR5 receptor, below 0.1 µM.

As to `Cc1cnccc1-c1cccc(C2CN(C(=O)CS(=O)(=O)O)CCN2S(=O)(=O)c2ccccc2C)c1` (centres unmarked) [Compound 49AA, 2-(3-(3-(3-methylpyridin-4-yl)phenyl)-4-(o-tolylsulfonyl)piperazin-1-yl)-2-oxoethanesulfonic acid], the concentration for a half-maximal effect (EC50) was 0.1 to 0.999 µM at human TGR5 receptor and below 0.1 µM on mouse TGR5 receptor.

For `Cc1cnccc1-c1cccc([C@H](C)N(CCCC(=O)NCCNC(=O)CS(=O)(=O)O)S(=O)(=O)c2ccccc2C(F)(F)F)c1` [Compound 31AE, (S)-2-((2-(4-(N-(1-(3-(3-methylpyridin-4-yl)phenyl)ethyl)-2-(trifluoromethyl)phenylsulfonamido)butanamido)ethyl)amino)-2-oxoethanesulfonic acid], the figures for the concentration giving a half-maximal response (EC50) on human TGR5 receptor and at mouse TGR5 receptor were below 0.1 µM and 0.1 to 0.999 µM, respectively.

As to `COc1cnccc1-c1cccc(C(C)(C)NS(=O)(=O)c2cccc(C(F)(F)F)c2C)c1` [Compound 2BM], the EC50 on human TGR5 receptor is below 0.1 µM; on mouse TGR5 receptor, 0.1 to 0.999 µM.

Turning to `Cc1cnccc1-c1cccc([C@H](C)N(CCCC(=O)NCCOCCOCCOCCC(=O)O)S(=O)(=O)c2cccc(Cl)c2C)c1` [Compound 20AU, (S)-3-((3-chloro-2-methylphenyl)sulfonyl)-2-(3-(3-methylpyridin-4-yl)phenyl)-7-oxo-11,14,17-trioxa-3,8-diazaicosan-20-oic acid], the values for the concentration for a half-maximal effect (EC50) on human TGR5 receptor and on mouse TGR5 receptor were below 0.1 µM and 0.1 to 0.999 µM, respectively.

As to `CC(C)(NS(=O)(=O)c1ccccc1C(F)(F)F)c1cccc(-c2ccc3nccn3c2)c1` [Compound 5AJ, N-(2-(3-(imidazo[1,2-a]pyridin-6-yl)phenyl)propan-2-yl)-2-(trifluoromethyl)benzenesulfonamide], the 50% effective concentration (EC50) was 0.1 to 0.999 µM at human TGR5 receptor and 1 to 30 µM on mouse TGR5 receptor.

Take `Cc1nccc(-c2cccc([C@H](C)NS(=O)(=O)c3cccc(Cl)c3C)c2)c1C` [Compound 7AB, (S)-3-chloro-N-(1-(3-(2,3-dimethylpyridin-4-yl)phenyl)ethyl)-2-methylbenzenesulfonamide]: the EC50 at human TGR5 receptor is 0.1 to 0.999 µM; on mouse TGR5 receptor, 1 to 30 µM.

On to `CCc1cnccc1-c1cccc([C@H](CCCC#N)NS(=O)(=O)c2ccccc2C(F)(F)F)c1` [Compound 6AC, (S)-N-(4-cyano-1-(3-(3-ethylpyridin-4-yl)phenyl)butyl)-2-(trifluoromethyl)benzenesulfonamide], for which the EC50 at human TGR5 receptor and at mouse TGR5 receptor was below 0.1 µM each time.

Turning to `Cc1cnccc1-c1cccc([C@H](C)N(CCCCN)S(=O)(=O)c2ccccc2C(F)(F)F)c1` [Compound 24, (S)—N-(4-aminobutyl)-N-(1-(3-(3-methylpyridin-4-yl)phenyl)ethyl)-2-(trifluoromethyl)Benzenesulfonamide], the EC50 was below 0.1 µM at human TGR5 receptor and 1 to 30 µM at mouse TGR5 receptor.

Regarding `Cc1cnccc1-c1cccc([C@H](C)N(CCCCNc2c(NCCS(=O)(=O)O)c(=O)c2=O)S(=O)(=O)c2ccccc2C(F)(F)F)c1`, the EC50 on human TGR5 receptor was below 0.1 µM; on mouse TGR5 receptor it was 0.1 to 0.999 µM.

Consider `CCc1cnccc1-c1cccc(C2CNCCN2S(=O)(=O)c2cccc(Cl)c2C)c1` (racemic) [Compound 43, (+/−) 1-((3-chloro-2-methylphenyl)sulfonyl)-2-(3-(3-ethylpyridin-4-yl)phenyl)piperazine hydrochloride], for which the EC50 at human TGR5 receptor and on mouse TGR5 receptor was below 0.1 µM in each case.

As for `COc1cnccc1-c1cccc(C(C)(C)NS(=O)(=O)c2ccc(C#N)cc2Cl)c1` [Compound 2BN], the EC50 on human TGR5 receptor was 0.1 to 0.999 µM; at mouse TGR5 receptor, 1 to 30 µM.

Regarding `Cc1c(Cl)cccc1S(=O)(=O)N(CCCC(=O)NCCS(=O)(=O)O)C(C)(C)c1cccc(-c2ccncc2CO)c1` [Compound 20AO, 2-(4-(3-chloro-N-(2-(3-(3-(hydroxymethyl)pyridin-4-yl)phenyl)propan-2-yl)-2-methylphenylsulfonamido)butanamido)ethanesulfonic acid], the EC50 is below 0.1 µM at human TGR5 receptor and 0.1 to 0.999 µM on mouse TGR5 receptor.

As to `CCc1cnccc1-c1cccc(C(C)(C)NS(=O)(=O)c2ccccc2[N+](=O)[O-])c1` [Compound 5AO, N-(2-(3-(3-ethylpyridin-4-yl)phenyl)propan-2-yl)-2-nitrobenzenesulfonamide], the EC50 at human TGR5 receptor and at mouse TGR5 receptor was below 0.1 µM in each case.

With `Cc1cnccc1-c1cccc(C(C)N(CCCNc2c(NCS(=O)(=O)O)c(=O)c2=O)S(=O)(=O)c2cccc(Cl)c2C)c1` (centres unmarked) [Compound 32AA, ((2-((3-(3-chloro-2-methyl-N-(1-(3-(3-methylpyridin-4-yl)phenyl)ethyl)phenylsulfonamido)propyl)amino)-3,4-dioxocyclobut-1-en-1-yl)amino)methanesulfonic acid], the EC50 at human TGR5 receptor is below 0.1 µM; on mouse TGR5 receptor, 0.1 to 0.999 µM.

With `Cc1cnccc1-c1cccc(C(C)(C)N(CCCNS(=O)(=O)CCNC(=N)N)S(=O)(=O)c2cccc(Cl)c2C)c1` [Compound 27AC, 3-chloro-N-(3-((2-guanidinoethyl)sulfonamido)propyl)-2-methyl-N-(2-(3-(3-methylpyridin-4-yl)phenyl)propan-2-yl)benzenesulfonamide], the EC50 is below 0.1 µM on human TGR5 receptor and 0.1 to 0.999 µM at mouse TGR5 receptor.

Turning to `Cc1cnccc1-c1cccc([C@H](C)N(CCCC(=O)NCCS(N)(=O)=O)S(=O)(=O)c2cccc(Cl)c2C)c1` [Compound 20AJ, (S)-4-(3-chloro-2-methyl-N-(1-(3-(3-methylpyridin-4-yl)phenyl)ethyl)phenylsulfonamido)-N-(2-sulfamoylethyl)butanamide], the EC50 is below 0.1 µM at human TGR5 receptor and 0.1 to 0.999 µM on mouse TGR5 receptor.

Consider `Cc1cnccc1-c1cccc([C@H](C)N(CCCC(=O)NCCNC(=O)[C@@H](N)CS(=O)(=O)O)S(=O)(=O)c2ccccc2C(F)(F)F)c1` [Compound 31AF, (R)-2-amino-3-((2-(4-(N-((S)-1-(3-(3-methylpyridin-4-yl)phenyl)ethyl)-2-(trifluoromethyl)phenylsulfonamido)butanamido)ethyl)amino)-3-oxopropane-1-sulfonic acid], for which the figures for the half-maximal effective concentration (EC50) on human TGR5 receptor and on mouse TGR5 receptor were below 0.1 µM and 0.1 to 0.999 µM, respectively.

Turning to `Cc1cnccc1-c1cccc([C@H](C)N(CCCC(=O)N2CCC[C@H]2C(=O)O)S(=O)(=O)c2cccc(Cl)c2C)c1` [Compound 21AJ, (S)-1-(4-(3-chloro-2-methyl-N-((S)-1-(3-(3-methylpyridin-4-yl)phenyl)ethyl)phenylsulfonamido)butanoyl)pyrrolidine-2-carboxylic acid], the concentration giving a half-maximal response (EC50) at human TGR5 receptor is below 0.1 µM; on mouse TGR5 receptor it was 0.1 to 0.999 µM.

Turning to `Cc1cnccc1-c1cccc(C2CN(C(=O)CS(=O)(=O)O)CCN2S(=O)(=O)c2ccccc2C(F)(F)F)c1` (centres unmarked) [Compound 49AG, 2-(3-(3-(3-methylpyridin-4-yl)phenyl)-4-((2-(trifluoromethyl)phenyl)sulfonyl)piperazin-1-yl)-2-oxoethanesulfonic acid], the EC50 is 0.1 to 0.999 µM on human TGR5 receptor and below 0.1 µM on mouse TGR5 receptor.

Consider `Cc1cnccc1-c1cccc(C(C)N(CCCC(=O)NCCSO)S(=O)(=O)c2cccc(C(F)(F)F)c2)c1` (centres unmarked) [Compound 20BD, N-(2-(hydroxythio)ethyl)-4-(N-(1-(3-(3-methylpyridin-4-yl)phenyl)ethyl)-3-(trifluoromethyl)phenylsulfonamido)butanamide], for which the EC50 at human TGR5 receptor and at mouse TGR5 receptor was 0.1 to 0.999 µM in each case.

With `Cc1cc2nccn2cc1-c1cccc(C(C)(C)NS(=O)(=O)c2ccccc2C(F)(F)F)c1` [Compound 5AK, N-(2-(3-(7-methylimidazo[1,2-a]pyridin-6-yl)phenyl)propan-2-yl)-2-(trifluoromethyl)benzenesulfonamide], the results for the EC50 on human TGR5 receptor and at mouse TGR5 receptor were 0.1 to 0.999 µM and 1 to 30 µM, respectively.

Consider `COc1cnccc1-c1cccc(C(C)(C)NS(=O)(=O)c2ccc(Cl)cc2Cl)c1` [Compound 2BG], for which the EC50 on human TGR5 receptor and on mouse TGR5 receptor was below 0.1 µM throughout.

On to `COc1cnccc1-c1cccc(C(C)(C)NS(=O)(=O)c2ccc(C(F)(F)F)cc2[N+](=O)[O-])c1` [Compound 2BJ], for which the EC50 is below 0.1 µM at human TGR5 receptor and 1 to 30 µM on mouse TGR5 receptor.

Take `CC(C)(NS(=O)(=O)c1cccc(C(F)(F)F)c1)c1cccc(-c2ccc3nccn3c2)c1` [Compound 5AF, N-(2-(3-(imidazo[1,2-a]pyridin-6-yl)phenyl)propan-2-yl)-3-(trifluoromethyl)benzenesulfonamide]: the results for the EC50 on human TGR5 receptor and at mouse TGR5 receptor were 0.1 to 0.999 µM and 1 to 30 µM, respectively.
